Reference: ChEMBL document CHEMBL1201862, “PubChem BioAssay data set” (2004)
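Exposure lasted 48 hours, with cells grown in 96-well plates and compounds tested at five concentrations. GI50 marks 50% less growth.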 Activity calls are given as the source filed them. No stated cut-off is given here; in the data, active = GI50 up to about 1.1 µM and inactive = higher.

Tests used:
Assay in all cases: NCI tumour cell line growth inhibition, 48 h
CAKI-1 = system: CAKI-1
KM-20L2 = system: KM-20L2
KM12 = system: KM12
M19-MEL = system: M19-MEL
NCI-H23 = system: NCI-H23
NCI-H460 = system: NCI-H460
OVCAR-5 = system: OVCAR-5
SF-295 = system: SF-295
SK-MEL-28 = system: SK-MEL-28
UO-31 = system: UO-31
XF498 = system: XF498
786-0 = system: 786-0
HL-60 = system: HL-60
M14 = system: M14
MOLT-4 = system: MOLT-4
BT-549 = system: BT-549
Hs-578T = system: Hs-578T
MDA-MB-435 = system: MDA-MB-435
MDA-N = system: MDA-N
PC-3 = system: PC-3

Row | Structure (SMILES) | GI50 (CAKI-1) | GI50 (KM-20L2) | GI50 (KM12) | GI50 (M19-MEL) | GI50 (NCI-H23) | GI50 (NCI-H460) | GI50 (OVCAR-5) | GI50 (SF-295) | GI50 (SK-MEL-28) | GI50 (UO-31) | GI50 (XF498) | GI50 (786-0) | GI50 (HL-60) | GI50 (M14) | GI50 (MOLT-4) | GI50 (BT-549) | GI50 (Hs-578T) | GI50 (MDA-MB-435) | GI50 (MDA-N) | GI50 (PC-3)
1 | C[C@]12CC[C@H](O)C=C1CC[C@@H]1[C@@H]2CC[C@]2(C)C(c3ccc(=O)oc3)CC[C@]12O (some centres undefined) | 0.0151 µM (active) | 0.0244 µM (active) | 0.0336 µM (active) | 0.0129 µM (active) | 0.0125 µM (active) | 0.0132 µM (active) | 0.108 µM (active) | 0.0134 µM (active) | 0.0266 µM (active) | 0.0141 µM (active) | 0.0184 µM (active) |  |  |  |  |  |  |  |  | 
2 | CCCCCCCCCCCC[N+](CCCCCCCCCCCC)=C1SCCS1 | 12.8 µM (inactive) | 5.28 µM (inactive) |  | 3.29 µM (inactive) | 2.04 µM (inactive) | 7.28 µM (inactive) | 12.2 µM (inactive) | 3.05 µM (inactive) | 11 µM (inactive) | 13.4 µM (inactive) |  | 3.52 µM (inactive) | 0.163 µM (active) | 10.5 µM (inactive) | 2.98 µM (inactive) |  |  |  |  | 
3 | CN(C)c1ccc(N2C(=S)SC(=N\c3ccccc3)/C2=N/c2ccccc2)cc1 | > 100 µM (inactive) |  | > 100 µM (inactive) |  | > 100 µM (inactive) | > 100 µM (inactive) | > 100 µM (inactive) | > 100 µM (inactive) | > 100 µM (inactive) | > 100 µM (inactive) |  |  | > 100 µM (inactive) | > 100 µM (inactive) | > 10 µM (inactive) | > 100 µM (inactive) | > 100 µM (inactive) | > 100 µM (inactive) | > 100 µM (inactive) | 37.8 µM (inactive)
4 | COC1=CC(=O)C=C(OC)C1=O [2,6-DIMETHOXYQUINONE] | 50.4 µM (inactive) | 30 µM (inactive) | 16.4 µM (inactive) | 4.22 µM (inactive) | 7.66 µM (inactive) | 23.7 µM (inactive) | 28.1 µM (inactive) | 13.3 µM (inactive) | 21.8 µM (inactive) | 23.6 µM (inactive) | 2.99 µM (inactive) |  | 3.94 µM (inactive) |  | 1.49 µM (inactive) |  |  |  |  | 
5 | COc1ccc2c(c1)c1cc(OC)ccc1n2CCCCOc1ccc(-c2c3ccccc3c(-c3ccc(OCCCCn4c5ccc(OC)cc5c5cc(OC)ccc54)cc3)c3ccccc23)cc1 | > 100 µM (inactive) | > 100 µM (inactive) | > 100 µM (inactive) | > 100 µM (inactive) |  |  | > 100 µM (inactive) |  | > 100 µM (inactive) | > 100 µM (inactive) | > 100 µM (inactive) |  |  | > 100 µM (inactive) | > 100 µM (inactive) |  |  |  |  | 
6 | CC(C)c1ccccc1SCc1cc(=O)cc(CSc2ccccc2C(C)C)o1 | 18.5 µM (inactive) |  | 15.7 µM (inactive) |  | 37.6 µM (inactive) | 21.1 µM (inactive) | 15.3 µM (inactive) | 17.7 µM (inactive) | 32.7 µM (inactive) | 27.4 µM (inactive) |  |  | 22.9 µM (inactive) | 20.2 µM (inactive) | 22.6 µM (inactive) |  | 13.5 µM (inactive) | 15 µM (inactive) | 18.8 µM (inactive) | 13.7 µM (inactive)
7 | CCN(CC)CCCNc1ncc(C)c2[nH]c3ccncc3c12 |  | 6.24 µM (inactive) | 6.18 µM (inactive) | 11.5 µM (inactive) | 12.7 µM (inactive) | 3.33 µM (inactive) | 4.7 µM (inactive) | 11.2 µM (inactive) | 12.9 µM (inactive) | 28.1 µM (inactive) | 11.4 µM (inactive) |  | 22 µM (inactive) |  | 2.65 µM (inactive) |  |  |  |  | 
8 | COc1ccc2nc3ccc(OC)cc3c([S+]([O-])CCCl)c2c1 (centres undefined) | 2.62 µM (inactive) |  | 16.6 µM (inactive) |  | 4.26 µM (inactive) | 26.4 µM (inactive) | 14.9 µM (inactive) | 22.2 µM (inactive) | 3.73 µM (inactive) | 2.28 µM (inactive) |  | 1.76 µM (inactive) | 2.31 µM (inactive) | 3.52 µM (inactive) | 2.82 µM (inactive) | 15.1 µM (inactive) | 2.24 µM (inactive) | 3.73 µM (inactive) | 2.44 µM (inactive) | 11.2 µM (inactive)
9 | CC1(C)N=C(N)N=C(N)N1c1ccc(OCCCOc2ccccc2)c(Cl)c1 | 1.77 µM (inactive) | 0.0715 µM (active) | 0.122 µM (active) | 0.147 µM (active) | 0.239 µM (active) | 0.0457 µM (active) | 0.295 µM (active) | 0.538 µM (active) | 0.809 µM (active) |  | < 0.01 µM (active) |  | 0.0322 µM (active) |  | 0.0336 µM (active) |  |  |  |  | 
10 | CCC1(c2ccccc2)C(=O)N=C(c2ccccc2)N1CCc1ccccc1 (centres undefined) | > 100 µM (inactive) |  | > 100 µM (inactive) |  | > 100 µM (inactive) |  | > 100 µM (inactive) | > 100 µM (inactive) | > 100 µM (inactive) | > 100 µM (inactive) |  | > 100 µM (inactive) | > 100 µM (inactive) | > 100 µM (inactive) | > 100 µM (inactive) | > 100 µM (inactive) | > 100 µM (inactive) | > 100 µM (inactive) | > 100 µM (inactive) | > 100 µM (inactive)
11 | CC(NC(C#N)CC12CC3CC(CC(C3)C1)C2)c1ccccc1 (centres undefined) | 33.3 µM (inactive) |  |  |  |  | 26.5 µM (inactive) | 63.8 µM (inactive) | 20.6 µM (inactive) | > 100 µM (inactive) | 77.8 µM (inactive) |  |  | 18.5 µM (inactive) | 54.8 µM (inactive) | 27.9 µM (inactive) |  |  | > 100 µM (inactive) | > 100 µM (inactive) | > 100 µM (inactive)
12 | N/N=C1\C(=O)N(c2ccc(Cl)c(Cl)c2)C(=O)C1C(=O)Nc1ccc(Cl)c(Cl)c1 (centres undefined) |  | 48.4 µM (inactive) | 50.7 µM (inactive) | > 100 µM (inactive) | 40.6 µM (inactive) | 54.5 µM (inactive) | 88.7 µM (inactive) | 31.9 µM (inactive) | 31 µM (inactive) | 19.8 µM (inactive) |  | 89.5 µM (inactive) | 74.5 µM (inactive) | > 100 µM (inactive) | 42.4 µM (inactive) |  |  |  |  | 
13 | CC12Nc3ccccc3C1=C(c1ccccc1)CC1C(=O)OC(=O)C12 (centres undefined) |  | > 100 µM (inactive) | > 100 µM (inactive) | > 100 µM (inactive) | > 100 µM (inactive) | > 100 µM (inactive) | > 100 µM (inactive) | > 100 µM (inactive) | > 100 µM (inactive) | > 100 µM (inactive) | > 100 µM (inactive) | > 100 µM (inactive) | > 100 µM (inactive) | > 100 µM (inactive) | > 100 µM (inactive) |  |  |  |  | 
14 | COC(=O)C1=C(OC(=O)/C=C/c2ccc(Cl)cc2)C(C(=O)OC)[C@@]2(O)[C@@H](C(=O)OC)[C@H](C)C[C@@H]1[C@@H]2C(=O)OC (some centres undefined) | 22.5 µM (inactive) |  | 34.1 µM (inactive) |  | 19.5 µM (inactive) | 27.2 µM (inactive) | 28.4 µM (inactive) | 29.4 µM (inactive) | 26.4 µM (inactive) | 27 µM (inactive) |  |  | 13.6 µM (inactive) | 23.2 µM (inactive) | 15.8 µM (inactive) | 21.6 µM (inactive) | 3.9 µM (inactive) | 14.9 µM (inactive) | 10.4 µM (inactive) | 20.7 µM (inactive)
15 | CCOC(=O)C(NC(=O)Nc1ccccc1)(Nc1cccc(Cl)c1)C(F)(F)F (centres undefined) |  |  | > 100 µM (inactive) |  | > 100 µM (inactive) | > 100 µM (inactive) | > 100 µM (inactive) |  | > 100 µM (inactive) | > 100 µM (inactive) |  | > 100 µM (inactive) | 42 µM (inactive) | > 100 µM (inactive) | 98.9 µM (inactive) | > 100 µM (inactive) | 24.3 µM (inactive) | > 100 µM (inactive) | > 100 µM (inactive) | > 100 µM (inactive)
16 | C=CCn1c(=O)c(C)cn(COCCO)c1=O | > 100 µM (inactive) |  | > 100 µM (inactive) |  | > 100 µM (inactive) | > 100 µM (inactive) | > 100 µM (inactive) |  | > 100 µM (inactive) | > 100 µM (inactive) |  |  |  | > 100 µM (inactive) | > 100 µM (inactive) | > 100 µM (inactive) | > 100 µM (inactive) | > 100 µM (inactive) | > 100 µM (inactive) | > 100 µM (inactive)
17 | O=NN(CCCl)C(=O)N[C@H]1CCCC[C@@H]1Cl | > 100 µM (inactive) | > 100 µM (inactive) | > 100 µM (inactive) | 39.7 µM (inactive) | 71.6 µM (inactive) | 29.4 µM (inactive) |  | 47.1 µM (inactive) | > 100 µM (inactive) | > 100 µM (inactive) | > 100 µM (inactive) | 37.8 µM (inactive) | 19.6 µM (inactive) | > 100 µM (inactive) | 32.4 µM (inactive) |  |  |  |  | 
18 | NC(=S)N/N=C1\c2ccccc2CCC1CCC1(O)CCc2ccccc2C1=O (centres undefined) | 58.3 µM (inactive) |  | 26.9 µM (inactive) |  | 25.5 µM (inactive) | 16 µM (inactive) | 26 µM (inactive) | 23 µM (inactive) | 20.7 µM (inactive) | 12 µM (inactive) |  |  | 2.74 µM (inactive) | 16.4 µM (inactive) | 24.5 µM (inactive) | 16.4 µM (inactive) | 16.1 µM (inactive) | 20.9 µM (inactive) | 25.2 µM (inactive) | 31 µM (inactive)
19 | C[S+](C)([O-])=Nn1c(=O)n2n(c1=O)[C@H]1CC[C@@H]2C1 | > 100 µM (inactive) |  | > 100 µM (inactive) |  | > 100 µM (inactive) | > 100 µM (inactive) | > 100 µM (inactive) | > 100 µM (inactive) | > 100 µM (inactive) | > 100 µM (inactive) |  |  | 46.3 µM (inactive) | > 100 µM (inactive) | > 100 µM (inactive) |  | > 100 µM (inactive) | > 100 µM (inactive) | > 100 µM (inactive) | > 100 µM (inactive)
